We go through six compounds from US6372943B1, “Polyenepolycarboxylic acids, derivatives thereof with respect to carboxyl groups, or salts of these” (Fujisawa Pharmaceutical Co., Ltd., priority 1998, dated 2002).

The nature of experiment [1]: Sequestering ability against calcium ion under alkaline condition (pH13) (Example 17). The experiment is classed as physicochemical. On the procedure:
First, a liquid for measurement was prepared in the following manner. Potassium oxalate (0.6 g) was dissolved in 0.1N sodium hydroxide (500 mL), and in the resulting solution (10 mL) was dissolved pentasodium salt of S1 compound (40) mg) or heptasodium salt of S2 compound (40 mg) to give the liquid for measurement. As a titrant was used 2.2% calcium acetate solution.
The titrant was added dropwise to this liquid for measurement under stirring until the liquid for measurement became turbid by precipitation of calcium oxalate to determine the titer used A (mL). Another liquid for measurement not containing any one of the test samples was also measured in the same manner as above to determine the titer of blank B (mL). Based on the titers A and B, the sequestering ability against calcium ion was calculated according to the following formula. For comparison, an existing chelating agent (EDTA·4Na) was treated in the same manner as above to calculate its sequestering ability against calcium ion.
Sequestering ability against calcium ion [Ca ion (mg)/test sample (1 g)]=(A−B)×(1 g/test sample amount precisely weighed)×5
wherein the numeral “5” is the amount of Ca ion (5 mg) equivalent to 1 mL of the 2.2% calcium acetate solution.

The nature of experiment [2]: Dispersing activity, organic pigment in a non-aqueous system case 2, S0 anhydride in ethyl acetate (Example 15). Conditions: supernatant 0.25 mL. As for the experimental part:
(§1) Into a test tube (16×150 mm) was scaled and collected 0.5 mL of a suspension of copper phthalocyanine blue in ethyl acetate (40 mg/10 mL) under stirring with a point mixer, and ethyl acetate (4.5 mL) was further added thereto.
(§2) To this suspension was added a solution of each of S1 and S2 anhydrides obtained in preparation example 1 in ethyl acetate (20 mg/2 mL), and ethyl acetate was further added thereto to give a total amount of 6 mL. This liquid was stirred with a point mixer for 15 seconds, treated with ultrasonic wave for 30 minutes, and then allowed to stand for 10 to 30 minutes. The resulting supernatant liquid (0.5 mL) was colle cted, admixed with ethyl acetate to give a total amount of 3 mL and then measured for absorbance at 660 wavelength. From the absorbance thus measured, the dispersibility was evaluated.
S0 anhydride obtained in preparation example 11 was treated in the same manner as in example 14. The resulting supernatant liquid (0.25 mL) was collected, admixed with ethyl acetate to give a total amount of 3 mL, and then measured for absorbance. From the absorbance thus measured, the dispersing activity was evaluated.

Experiment [3] in a line: Dispersing activity, organic pigment in a non-aqueous system case 1, ethyl acetate (Example 14). As for the experimental part:
as §1, §2

A short description of experiment [4]: Dispersing activity, organic pigment in a non-aqueous system case 3, ethanol (Example 16). The note with it: supernatant 0.25 mL. As for the experimental part:
as §1, §2
The same procedure as in example 14 except for the use of ethanol instead of ethyl acetate was performed. The amount of a supernatant liquid was 0.25 mL. From the absorbance thus measured, the dispersing activity was evaluated.

Experiment [5] is described as follows: Detergent activity against artificially soiled cloth, Launder-o-meter (Example 19). Conditions: additive 0.25 g/L in basic washing liquid; 20° C., 10 minutes; ratio to washing liquid with no addition. On the procedure: A detergency test was conducted using a Launder-o-meter as a detergency tester by washing 15 pieces of artificially wet-soiled cloth (size: 5×5 cm, dirt composition: oleic acid 28.3%, triolein 15.6%, cholesterol oleate 12.2%, liquid paraffin 2.5%, squalene 2.5%, cholesterol 1.6%, gelatin 7.0%, soil matter 29.8% and carbon black 0.2-0.3%) available from SENTAKU KAGAKU KYOKAI (foundation) in a washing liquid (liquid temperature: 20° C.) of the composition shown in Table 25 for 10 minutes, followed by rinsing for three minutes.
Judgment was done in the following manner. The reflectivity of each of the 15 pieces of artificially soiled cloth was measured before and after the test by means of a spectrocolorizeter, and from the mean value of the measured values the detergency was calculated according to the formula of Kubelka and Munk. The ratio of the detergency calculated of a sample to the detergency of a washing liquid with no addition was found as a detergency ratio.

The nature of experiment [6]: Dispersing activity, organic pigment in an aqueous system case 1, phthalocyanine green (Example 12). The note with it: standing three hours. On the procedure: Into a test tube (16×150 mm) were placed a phthalocyanine green suspension (5 mL: phthalocyanine green 16 mg/distilled water 200 mL) and the filtrate (evaporated to dryness) obtained in culture example 1 in a predetermined amount, followed by stirring for 15 seconds with a point mixer. After the stirring, the resulting mixture liquid was allowed to stand for three hours, and then the diameter of phthalocyanine green deposited on the bottom of the test tube was measured to evaluate the dispersibility from the diameter measured. That is, a greater diameter measured is indicative of better dispersibility. For comparison, the same procedure was taken with commercially available naphthalenesulfonate or lignin sulfonate.

For `O=C([O-])CN(CCN(CC(=O)[O-])CC(=O)[O-])CC(=O)[O-].[Na+].[Na+].[Na+].[Na+]` [EDTA · 4Na, EDTA·4Na], the “Sequestering ability against calcium ion, Ca ion” value in experiment [1] is 92 mg/1 g of a test sample.
In the case of `CC/C=C/C1=C(CCC(=O)O)C(=O)OC1=O` [S0 anhydride], the “Absorbance (660 nm)” value in experiment [2] (amount added 0.5 mg) amounted to 0.84; in experiment [2] (amount added 1.0 mg), 0.89.
With `CC/C=C/C1=C(CC(CC)CC2=C(CCC(=O)O)C(=O)OC2=O)C(=O)OC1=O` (stereo not shown) [S1 anhydride], the “Absorbance (660 nm)” value in experiment [3] (amount added 2.5 mg) was determined as 0.66; in experiment [3] (amount added 5 mg), 1.27; in experiment [3] (amount added 10 mg), 1.86; in experiment [4] (amount added 0.25 mg), 0.05; in experiment [4] (amount added 0.50 mg), 0.69; in experiment [4] (amount added 1.00 mg), 0.63.
Turning to `O=P(O)(O)OP(=O)(O)OP(=O)(O)O` [Sodium tripolyphosphate], the Detergency ratio in experiment [5] is 1.38.
As for `O=C([O-])CC(O)(CC(=O)[O-])C(=O)[O-].[Na+].[Na+].[Na+]` [Trisodium citrate], the Detergency ratio in experiment [5] is 1.38.
In the case of naphthalenesulfonate, the “Diameter of phthalocyanine green deposited” value in experiment [6] (0.17 mg) is 4 mm; in experiment [6] (0.85 mg), 5 mm; in experiment [6] (1.7 mg), 6 mm; in experiment [6] (8.5 mg), 6 mm; in experiment [6] (17 mg), 6 mm.
